The source of these data is patent publication US5534542A, “Methods and materials relating to a bi-metallic cross-linking species” (priority 1994, dated 1996).

Data set [1] concerns radiolabelled DNA fragment. Nature of the data set: DNA-binding assay: electrophoretic mobility shift of a radiolabelled DNA fragment on polyacrylamide gel. The note with it: for DNA mobility shift with increasing concentrations: polyacrylamide gel electrophoresis of radiolabelled DNA fragment. An excerpt:
The assay used to determine the DNA-binding activity of the complexes is based on the assays developed by Lippard and coworkers for assaying the extent of DNA binding by cis-DDP, in which the electrophoretic mobility of a DNA molecule is altered by binding of the drug (Sundquist, 1990). Charge neutralization and DNA bending caused by binding of the divalent metal complex have been invoked to explain the observed mobility shift.
For orientation: In EMSA bound probe runs differently from free probe, usually more slowly.

Data set [2] is described as follows: Kinetics of the reaction of the complex with DMSO (UV spectroscopy). The class given is physicochemical. The note with it: room temperature; in accord with published rate data for cis-Pt(NH3)2Cl2. How it is done: ^1 H, ^13 C, ^195 Pt and ^199 Hg NMR spectra were recorded on a Varian VXR-400 Fourier Transform spectrometer, operating at 399.95 MHZ (^1 H), […] (^13 C), 85.736 MHz (^195 Pt), and 71.600 MHz (^199 Hg). Standard acquisition parameter files were used for the accumulation of ^1 H and ^13 C spectra. For ^195 Pt NMR, a spectral window of 50 KHz was used, with a pulse width of 30 μsec, and a pulse delay of 100 μsec. Broadband proton decoupling was employed during acquisition of the spectra. ^195 Pt spectra were referenced externally using a 0.1M aqueous solution of K2 PtCl4 in 0.1M KCl. Chemical shifts are reported relative to K2 PtCl6 =0 ppm. (δK2 PtCl4 =[…]). Proton-decoupled ^199 Hg NMR spectra were recorded using a spectral window of 30 KHz, a pulse width of 30 μsec, and a pulse delay of 100 μsec. Chemical shifts are reported relative to external Hg(CH3)2 (0 ppm). Mass spectra were recorded using a VG instruments VG70-250 S/SE instrument. Infrared spectra were recorded using either a Perkin-Elmer PE-283 or a Mattson Alpha Centauri FTIR spectrometer. UV spectra were obtained using a Hewlett-Packard HP8452 spectrophotometer running off of an IBM-AT personal computer. Kinetic measurements were controlled using the Hewlett-Packard Multicell Kinetics Module. Data manipulation and plotting was performed using the program Igor^24 running on a Macintosh IIx personal computer. […]

The nature of data set [3]: Solubility of the cross-linker complex in solvents. Type of data set: physicochemical. An excerpt:
The cross-linker species of the present invention has been characterized by a combination of analytical and spectroscopic techniques. […] The complex is quite soluble in DMSO, although a warning has been issued concerning the compositions of DMSO solutions of cisplatin derivatives (Sundquist, 1987). The proton NMR spectrum of the complex in d7-DMF is poorly resolved, and the resonances due to the residual protons in the deuterated solvent tend to obscure parts of the spectrum of the complex.
This appears to be an effect of particle size on dissolution rate, since no differences can be discerned in the infrared spectra of the complex before or after this treatment. In particular there is no evidence for coordinated DMSO in the region 1000-1200 cm-^1.

A further data set concerns the target T1, TFIIIA (Xenopus borealis, UniProt P17842).
T1 sequence (P17842 1-339): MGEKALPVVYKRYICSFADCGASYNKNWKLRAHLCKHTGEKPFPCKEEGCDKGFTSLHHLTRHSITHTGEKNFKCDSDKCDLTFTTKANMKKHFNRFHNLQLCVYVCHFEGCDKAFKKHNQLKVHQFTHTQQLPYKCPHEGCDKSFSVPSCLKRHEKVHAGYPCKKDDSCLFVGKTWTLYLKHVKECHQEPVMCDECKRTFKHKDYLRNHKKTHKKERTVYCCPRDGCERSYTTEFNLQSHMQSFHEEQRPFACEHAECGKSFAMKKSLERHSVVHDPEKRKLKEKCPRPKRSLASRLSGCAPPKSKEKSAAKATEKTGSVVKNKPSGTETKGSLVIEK
Nature of the data set: In vitro DNA-protein crosslinking assay (gel mobility shift), TFIIIA. The class given is biochemical. Conditions: zinc finger transcription factor TFIIIA and DNA fragment bearing its recognition sequence. An excerpt: (§1) (Pried & Crothers, 1981; Garner & Revsin, 1981).
(§2) Proteins and DNA Probes. TFIIIA from Xenopus Borealis was provided by T. Tullius (Johns Hopkins University) and A. Wolffe (NIH). Fur was purified based on the method of Neilands and coworkers. MerR extract was obtained and quantified as described (O'Halloran, 1989). DNA probes used in TFIIIA, Fur, and MerR gel mobility shift assays were derived from plasmids pXBS201 (obtained from T. Tullius), pGMer and pBIB, respectively. The 249-bp BamHI-HindIII fragment from pXBS201, 309-bp XhoI-PvuII fragment from pBIB and 411-bp BssHII-BssHII fragment from pGMer are labeled with [α-^32 P]dNTPs (Amersham) by the Klenow fragment of DNA polymerase (Bethesda Research Laboratories). The labeled fragments are then isolated and purified by gel electrophoresis. DNA concentrations were determined by optical density at 260 nm by using a molar extinction coefficient of 1.3×10^4 per nucleotide pair.
(§3) Crosslinking Activity Assay. DNA-protein-crosslinker are incubated in 20 μl (final volume) of binding buffer. The buffer for TFIIIA and MerR extract reaction is 20 mM Hepes [pH 7.5], 50 mM K2 SO4, 10 μMZnsO4, 3 mM MgCl2, 10% glycerol and 70 μg/ml Albumin, Bovine-carboxymethyl [c-BSA] (Sigma). The Fur incubation buffer is 20 mM Bis-Tris/Borate [pH 7.0], 50 mM K2 SO4, 5% glycerol, 1 mM MgCl2, 5 μG/ml salmon sperm DNA and 100 μg/ml c-BSA. […]

In the next data set the target is T2, Fur (Escherichia coli, UniProt P0A9A9).
T2 construct: made in house
T2 sequence (P0A9A9 2-148): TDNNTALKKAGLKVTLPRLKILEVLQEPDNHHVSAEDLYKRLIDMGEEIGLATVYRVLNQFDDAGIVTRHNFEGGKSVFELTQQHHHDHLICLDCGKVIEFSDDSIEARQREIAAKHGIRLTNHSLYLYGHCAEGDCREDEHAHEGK
Put plainly: In vitro DNA-protein crosslinking assay (gel mobility shift), Fur. The class given is biochemical. Conditions: Fur and DNA fragment bearing its recognition sequence.
Text: as §1, §2, §3

The next data set is described as follows: Stability at low pH. Type of data set: physicochemical.
The target of a further data set is T3, MerR protein (Pseudomonas aeruginosa, UniProt P0A183).
T3 construct: made in house
T3 sequence (P0A183 whole entry): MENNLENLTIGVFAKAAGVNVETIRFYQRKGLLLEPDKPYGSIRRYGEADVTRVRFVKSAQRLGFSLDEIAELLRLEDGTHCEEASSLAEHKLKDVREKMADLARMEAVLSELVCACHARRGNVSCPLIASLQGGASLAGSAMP
Nature of the data set: In vitro DNA-protein crosslinking assay (gel mobility shift), MerR. The class given is biochemical. The note with it: MerR and DNA fragment bearing its recognition sequence. Here is the method:
FIGS. 8-11: In vitro assay for crosslinking of proteins to DNA by 5-Chloromercuri-1,2-pentanediamine)dichloro platinum(II). Lane 1:4.5 pM DNA, 500 cpm Lane 2: DNA+460 pM MerR dimer Lane 3: DNA+protein+2.4 nM unlabeled competitor DNA Lane 4: DNA+protein+25 mM KCN Lane 5:DNA-protein complex treated with 10 mM 1 prior to competition. Lane 6: DNA-protein complex treated with 2 mM 1 prior to competition. Lane 7: DNA-protein complex treated with 0.4 mM crosslinker prior to competition Lanes 8-10: Reactions as for lane 5-7, pretreated with 25 mM KCN prior to competition. (Grant)
as §1
Proteins and DNA Probes. TFIIIA from Xenopus Borealis was provided by T. Tullius (Johns Hopkins University) and A. Wolffe (NIH). Fur was purified based on the method of Neilands and coworkers. MerR extract was obtained and quantified as described (O'Halloran, 1989). DNA probes used in TFIIIA, Fur, and MerR gel mobility shift assays were derived from plasmids pXBS201 (obtained from T. Tullius), pGMer and pBIB, respectively. […] DNA concentrations were determined by optical density at 260 nm by using a molar extinction coefficient of 1.3×10^4 per nucleotide pair. […]

For data set [4] the following is noted: cited from earlier work.

Entries after “also recorded” stand apart in the source; their conditions may differ.

`NCCN.[Cl][Pt][Cl]` [PtenCl2]: in data set [1], the “DNA mobility shift with increasing concentrations” value was “saturation binding curve”.

As to “5-Chloromercuri-1,2-pentanediamine)dichloro platinum(II) [Merplatin]”, the “half-life of reaction with DMSO” value in data set [2] was “approximately 3 hours”. Moreover, the “solubility in DMSO” value in data set [3] (DMSO) is recorded as “quite soluble”. Besides, the “solubility in NMP after reprecipitation” value in data set [3] (NMP, after dissolution in DMSO and immediate precipitation with ethanol) was “readily soluble”. Besides, in data set [3] (dimethylformamide or 1-methylpyrrolidinone (NMP), complex as prepared in Example 1), the “solubility in amide solvents” value is on record as “limited solubility; also recorded: dissolves sparingly”. The “concentration of solutions that can be prepared in amide solvents” value in data set [3] (dimethylformamide or NMP, complex as prepared in Example 1) is recorded as ~ 10 mM. In addition, in data set [3] (water and most organic solvents, listed as complex), the “solubility in water and most organic solvents” value was “limited solubility; also recorded: low solubility”. In addition, in data set [1], the “binding to DNA” value is recorded as “bind avidly to DNA” and the “DNA mobility shift with increasing concentrations” value is recorded as “saturation binding curve which is identical in form with a curve obtained by incubation of DNA with PtenCl2”. Also, the “induction of DNA-protein cross-links, TFIIIA” value on TFIIIA was “can efficiently induce DNA-protein cross-links”. Besides, the “induction of DNA-protein cross-links, Fur” value at Fur is listed as “can efficiently induce DNA-protein cross-links”. For the same molecule, in “Stability at low pH”, the “stability at low pH” value is on record as “stable at low pH”. At MerR protein, the “induction of DNA-protein cross-links, MerR” value was “can efficiently induce DNA-protein cross-links”.

In the case of `NCC1(CN)CCOCC1.O=C([O-])C1(C(=O)[O-])CCC1.[Pt+2]` [enloplatin], the “toxicity in phase I trials” value in data set [4] is “caused nephrotoxicity”.

Regarding `O=C([O-])C1(C(=O)[O-])CCC1.[NH-]CC(C[NH-])(CO)CO.[Pt+4]` [zeniplatin], the “toxicity in phase I trials” value in data set [4] is “caused nephrotoxicity”.

As for `[CH3][Hg][Cl]` [MeHgCl], the “DNA mobility shift with increasing concentrations” value in data set [1] is “does not exhibit a mobility shift at all”.

As to `N.N.[Cl][Pt][Cl]` [cisplatin, cis-dicholorodiammineplatinum(II), reference compound], the “binding to DNA” value in data set [1] is recorded as “bind avidly to DNA”. Further, the “induction of DNA-protein cross-links, TFIIIA” value at TFIIIA is “only the latter reagent can efficiently induce DNA-protein cross-links”. For the same molecule, the “induction of DNA-protein cross-links, Fur” value at Fur is recorded as “only the latter reagent can efficiently induce DNA-protein cross-links”. Also, the “induction of DNA-protein cross-links, MerR” value at MerR protein is reported as “only the latter reagent can efficiently induce DNA-protein cross-links”.
